Our source for the melting point values is a melting point compilation (Tetko et al.; mined from patent text by program, amines drawn as free bases though some values may be those of a salt).

On to `COC(=O)c1c(C(F)(F)F)nc(C(F)(F)F)c(C(=O)OC)c1[Si](C)(C)C`, for which the melting point lay within 29 to 31 °C.

Molecule `Cc1c2c(cn1C)NC(=O)C(OC(=O)CCCN1C(=O)c3ccccc3C1=O)N=C2c1ccccc1` (stereo unspecified) returned a melting point of 210 to 212 °C.

In the case of `C=CCn1c(=O)n(-c2ccc3c(c2)OCO3)c2ncccc21`, the melting point is 100 °C.

`COc1ccc(-c2nc(C(=O)OC(C)C)cc(Cl)c2Cl)cc1`: the melting point was in the range of 113 to 116 °C.

`COc1ccc2c(c1)C13CCN(C)C(C2)C1(O)C=CC(=O)C3` (stereo unspecified) had a melting point of 213 to 215 °C.

In turn, `CCCOc1ccc(COCCO)cc1-c1nc2c(CCC)nn(C)c2c(=O)[nH]1` displayed a melting point of 101 to 102 °C.

As for `O=CNCC(O)(Cn1cncn1)c1ccc(Cl)cc1Cl` (stereo unspecified), the melting point turned out to be 157 °C.

`COC(=O)CCCCC(C)C1CCC2C3CCC4CC(OC=O)CCC4(C)C3CC(OC=O)C12C` (stereo unspecified): the melting point was in the range of 67 to 72 °C.

`Cc1[nH]c(=O)c(C#N)cc1C(=O)c1ccncc1` yielded a melting point greater than 305 °C.

With `CC(C=Cc1ccccc1-c1cc2c(cc1C)C(C)(C)CCC2(C)C)=CC(=O)O`, the melting point lay within 181 to 182 °C.

Turning to `Cc1nc2c(c3c1[nH]c1ccccc13)C(=O)CC(C)C2` (stereo unspecified), the melting point lay within 218 to 219 °C.

Molecule `CS(=O)(=O)c1ccc(C(=O)O)c(Cl)c1OC1COC1` showed a melting point of 180 to 183 °C.

`CC(C)(C)[Si](C)(C)OCC1(CO[Si](C)(C)C(C)(C)C)c2ccccc2-c2ccccc21` yielded a melting point of 84 °C.

`CC(=O)Nc1ccc(OS(N)(=O)=O)cc1` showed a melting point of 180 to 181 °C.

The molecule `CSc1ccc(-c2nn(Cc3ccc(F)cc3F)c(=O)cc2-c2ccc(Cl)cc2)cc1` returned a melting point of 157 to 158 °C.

The molecule `CCCCS(=O)(=O)NC1Cc2ccccc2C1` displayed a melting point of 60 to 62 °C.

Molecule `CCOC(=O)CC(=O)Nc1cccc(F)c1CO` had a melting point of 91 °C.

Molecule `Cc1nc(-n2cnn(Cc3ccc(F)cc3)c2=O)sc1C(=O)NCc1cn(C)cn1` registered a melting point of 225 to 226 °C.

Molecule `CN(C)c1nc(N)c(-c2cc(Cl)cc(Cl)c2Cl)c(C(F)(F)F)n1` displayed a melting point of 124 to 126 °C.

Molecule `CCCCCN1C(=O)C(c2ccc3c(c2)OCO3)c2cccnc21` (stereo unspecified) yielded a melting point of 75 to 77 °C.

Regarding `CCOC(=O)CCCCNc1ccc2c(c1)CCC2`, the melting point lay in the range of 61 to 63 °C.

Take `COc1ccc(-c2nccc(N)n2)cc1`: the melting point was in the range of 102 to 104 °C.

Consider `CCN(CC)C(=O)n1ccc(S(=O)(=O)c2ccc(Br)c(C)c2)n1`, for which the melting point is 75 to 77 °C.

On to `O=C(O)COc1ccc(Br)cc1C(=O)NCc1ccc(Br)cc1F`, for which the melting point fell in the range of 153 to 155 °C.

On to `O=C1c2ccccc2C(=O)c2sc(-c3ccc(CO)o3)nc21`, for which the melting point is greater than 260 °C.

`CCOC(=O)CCC(=O)c1ccc(-c2ccccc2F)cc1` displayed a melting point of 56 to 58 °C.

The molecule `O=C(OC(c1ccccc1)c1ccccc1)c1c(-c2ccccc2)oc2c(CCl)cccc2c1=O` displayed a melting point of 186 °C.

Turning to `Cc1cc(NCCO)c2nn(-c3ccccc3)c(C)c2n1`, the melting point lay in the range of 159 to 161 °C.

`c1ccc(N(c2ccc3c(c2)Oc2ccc(N(c4ccccc4)c4cccc5ccccc45)cc2O3)c2cccc3ccccc23)cc1` showed a melting point of 315 °C.

Molecule `CCCc1nc(Cl)c(C(=O)O)n1Cc1ccc(C2(C(=O)O)CC=CC2)s1` gave a melting point of 170 to 172 °C.

`COC(=O)/C(=C/C=C/c1cc2ccccc2o1)OC` showed a melting point of 108 °C.

`COc1cc(-c2nc(N)sc2CCC2CCCCC2)c(OC)cc1Cl` yielded a melting point of 110 to 111 °C.

In turn, `Cc1cc(C)c(COc2cccc3c2C(=O)c2c(Cl)ccc4c2c-3nn4CCNCCO)c(C)c1` registered a melting point of 147 to 158 °C.

Molecule `CCN(CC)C(=O)c1c(C(=O)OC)ccc(F)c1[Si](C)(C)C` displayed a melting point of 46 °C.

Consider `CN(C)c1cc2nc(C(C)(C)C)sc2cc1[N+](=O)[O-]`, for which the melting point lay within 65 to 68 °C.

In turn, `N#Cc1c[nH]c2cc3ccccc3cc2c1=O` came in with a melting point greater than 260 °C.

Turning to `NS(=O)(=O)c1ccc(NN=C2C(=O)Nc3ccc(S(N)(=O)=O)cc32)cc1`, the melting point was greater than 250 °C.

In turn, `Nc1ccc(-c2ccncc2)cn1` registered a melting point of 192 to 195 °C.

The molecule `O=S(=O)(Nc1ccc2[nH]ncc2c1)C1CCNCC1` had a melting point of 120 to 123 °C.

`CCc1ccc(Nc2nc3cc(NC(=O)c4ccccc4Nc4cccc(C(F)(F)F)c4)ccc3o2)cc1` yielded a melting point of 174 to 176 °C.

Take `CCc1c(CC#N)ccc(O)c1O`: the melting point was in the range of 101 to 103 °C.

`CC(C)(C)n1nnc(Cc2ccc(Br)cc2)n1` returned a melting point of 69 to 70 °C.

Regarding `O=C1NC(=O)c2c1c(-c1ccccc1Cl)cc1c2c2cc(O)ccc2n1CCCSc1ccccc1`, the melting point lay in the range of 229 to 231 °C.

The molecule `COc1ccc(-c2csc(CO)c2)cc1` registered a melting point of 136 to 138 °C.

`Fc1cccc(Cl)c1COc1cc(Cl)cnc1NC(=S)Nc1ccc(Cl)cc1` yielded a melting point of 158 to 160 °C.

`Cc1ccc(C)c(OCc2ccccc2C(=O)c2ccon2)c1`: the melting point fell in the range of 90.5 to 92 °C.

`CC(C)(CO)n1c(Cc2ccccc2)nc2c(Cl)nc3ccccc3c21` registered a melting point of 262 to 266 °C.

In turn, `CCC(=O)C(=O)NC(=O)[C@@H](N)Cc1ccccc1` had a melting point of 121 to 123 °C.

Molecule `CNn1cc(C(=O)O)c(=O)c2cc(F)c(F)c(F)c21` came in with a melting point of 237 to 238 °C.

The molecule `CCOC(=O)CCC(C)C1CCC2C3C(O)C(CC)C4CC(O)CCC4(C)C3CCC12C` (stereo unspecified) had a melting point of 55 to 57 °C.

For the molecule `COc1cccc(-c2cn3cc(C(=O)NCCCCCCC(=O)NO)sc3n2)c1`, the melting point lay within 209 to 211 °C.

Molecule `NCc1nc(-c2ncn3c2[C@@H]2CCN2C(=O)c2c(Cl)cccc2-3)no1` yielded a melting point of 212 to 214 °C.

As for `CCOC(=O)COc1ccc(C=NCCN=Cc2ccc(OCC(=O)OCC)cc2O)c(O)c1`, the melting point was in the range of 104 to 106 °C.

Take `CCn1cc(-c2ccc3nnn(Cc4ccc5ncccc5c4)c3n2)cn1`: the melting point lay within 132 to 134 °C.

The molecule `O=[N+]([O-])c1cccc(-c2cc(Cc3ccc(F)cc3)cc(/C=N/O)c2O)c1` gave a melting point of 157 to 159 °C.

In turn, `C=Cc1ccc2nnn(OS(=O)(=O)c3ccc(Cl)cc3)c2c1` had a melting point of 125 °C.

In turn, `COc1ccc(-n2cnc3ccc(-c4nnc(CCc5cccc(C#N)c5)o4)cc32)cc1` yielded a melting point of 125 to 127 °C.

For `Cc1ccc(Cn2cc(C(=O)C(=O)NC3=CC(=O)OC3)c3ccc(F)cc32)cc1`, the melting point is 218 to 220 °C.

Turning to `CCCCCC1CCC(C2CCC(CC(O)CC)CC2)CC1` (stereo unspecified), the melting point was 131 °C.

In the case of `CC(C)(NC=O)c1ccc(I)cc1`, the melting point lay within 121 to 125 °C.

Molecule `O=C(c1ccc(F)cc1)C1CCN(CCCn2c(=O)[nH]c3ccccc32)CC1` returned a melting point of 164 °C.

With `CC(C)C1(C)C(=O)NC2c3ccccc3C(=O)N21` (stereo unspecified), the melting point was 178 to 200 °C.

In turn, `COc1ccc(OC)c(C(=O)c2cccc(OC)c2C(=O)O)c1` came in with a melting point of 180 to 182 °C.

`COc1cc(C2CN(c3cc4c(cc3F)ncc3c4c(=O)c(C(=O)O)cn3C)CCN2)ccc1OCc1ccccc1` (stereo unspecified) returned a melting point of 280 °C.

Consider `N#Cc1cccc(C2=Nc3ccc(C#CC4(O)CCCCC4)cc3NC(=O)C2)c1`, for which the melting point was 196 °C.

For the molecule `CC(C)(C)OC(=O)Nc1cc(OCC#N)c(C#Cc2ccccc2)cc1[N+](=O)[O-]`, the melting point stood at 170 °C.

Take `CCc1cc2ccccn2c1C(=O)c1ccc(OS(=O)(=O)c2ccc(C)cc2)cc1`: the melting point was found to be 165 °C.

Consider `Nc1cccc(Cn2c(-c3ccccc3)ccc2-c2ccccc2)n1`, for which the melting point was 143 to 144 °C.

In the case of `CCOCc1nc2c(N)nc(C)c(C)c2n1NC1CCOCC1`, the melting point was 120 to 122 °C.

`CCCCc1cn(Cc2ccc(-c3ccccc3C(=O)O)cc2)c2c(Br)cccc2c1=O` had a melting point of 180 °C.

For `CCOC(=O)N1CCC(Nc2nccc(Oc3ccc(NC(=O)c4cc(F)cc(N5CCOCC5)c4)c4ccccc34)n2)CC1`, the melting point was in the range of 122 to 124 °C.

In the case of `CC(c1oc2ccccc2c(=O)c1-c1cccc(F)c1)n1nc(-c2ccc(O)c(F)c2)c2c(N)ncnc21` (stereo unspecified), the melting point is 244 to 247 °C.

Turning to `CC(C)(C)c1cc2oc(-c3ccc(S(N)(=O)=O)cc3)c(-c3ccc(F)cc3)n2n1`, the melting point was 196 to 200 °C.

The molecule `O=C(Nc1ccc(Cl)cc1)C1=C(O)CS(=O)(=O)N(Cc2ccc(Cl)cc2)c2ccccc21` yielded a melting point of 182 to 183 °C.

Regarding `CC(C)(C)C(=O)OCn1cnc2ccc(CBr)cc2c1=O`, the melting point is 104 to 114 °C.

`O=C(Nc1ncc(C(F)(F)F)o1)C1c2ccccc2Oc2ccccc21`: the melting point turned out to be 218 °C.

Molecule `COc1cc2ncc(C#N)c(Nc3ccc(F)c(Cl)c3)c2cc1NC(=O)C=CCN1CCC(N2CCCCC2)CC1` registered a melting point of 140 to 144 °C.

For `Nc1cc(N2CCCC2)c(F)cc1[N+](=O)[O-]`, the melting point lay within 115 to 116 °C.

As for `Cc1nc2n(c(=O)c1CCN1CCC(C(=O)c3ccc(F)cc3)CC1)CCCN2Cc1ccccc1`, the melting point came out at 126 °C.

In the case of `CN1C(=O)C(c2cccc(OCc3ccccc3)c2)(c2cnn(CC(F)(F)F)c2)N=C1N` (stereo unspecified), the melting point fell in the range of 85 to 87 °C.

The molecule `CC(C)(C)c1ccc(S(=O)(=O)n2c(CCC(=O)O)cc3cc(Cl)ccc32)cc1` registered a melting point of 169 to 171 °C.

Regarding `Cc1nc2c(O)c(CCC(=O)c3ccc(F)cc3)c(C(=O)N(C)C)cc2n1C`, the melting point was 248 to 249 °C.

Regarding `COc1ccc(-c2ccc(Cl)nn2)c(OCC(O)CNC(C)C)c1` (stereo unspecified), the melting point was 128 to 129 °C.

`COC(=O)c1c(-c2ccccc2)n[nH]c1C` returned a melting point of 119 to 120 °C.

For `CCOc1cc(-c2cc(C(F)(F)F)n3ncc(C(=O)Nc4cccc(S(=O)(=O)NC(C)(C)CO)c4)c3n2)ccc1C(F)(F)F`, the melting point turned out to be 268 °C.

Turning to `CCOC(=O)C1=C(C)NC(C)=C(C(=O)OCC)C1c1ccccc1/C=C/C(=O)OC(C)(C)C`, the melting point lay within 143 to 145 °C.

By melting point is commonly meant the temperature, or range, at which the solid turns liquid.
